# Experiments:
# [1] = test system: carrageenan-induced edema; test: Test Example 4: inhibitory effect on carrageenan-induced edema, various acid anti-inflammatory agents (Table 5); assay type: in vivo, Wister male rats; conditions: dose 4 mg/kg, single agent
# Protocol: (§1) The measurement of the volume was carried out according to the method of Fujimura et al. (see Iyakuhin Kaihatsu Kisokoza, Vol. 6, "Yakubutsu no Hyoka (1)" editted by Tsuda and Nogami, p 239-282, Kabushiki Kaisha Chizin-sha, 1971).
# (§2) The rate of inhibition (%) of the edema of the foot pad of each rat was calculated according to the following formula (III). [formula] MCEV: Average swollen rate of the foot pad 4 hours after the administration of carrageenan in the control group
# (§3) MTEV: Average swollen rate of the foot pad 4 hours after the administration of carrageenan in the drug-given group [formula] CEV: Volume of foot pad of each rat before the administration of carrageenan
# (§4) TEV: Volume of foot pad of each rat 4 hours after the administration of carrageenan
# (§5) With respect to each agent, the evaluation of the inhibitory effect on edema was carried out according to the following criteria: Synergistic effect was observed:
# (§6) Very great HA % + DG % ≤ ED %
# (§7) Great TD % ≤ ED % < HA % + DG %
# (§8) Small MD % < ED % < TD %
# (§9) No synergistic effect was observed:
# (§10) HA % : Inhibitory rate by the administration of sodium hyaluronate alone
# (§11) DG % : Inhibitory rate by the administration of the anti-inflammatory agent alone
# (§12) ED % : Inhibitory rate by the administration of the combined agent
# (§13) MD % : {The greater one between HA % and DG %} × 1.2
# (§14) TD % : HA % + DG % (1--HA %/100)
# The inhibitory effect on carrageenan-induced edema was investigated with respect to combined agents of sodium hyaluronate (molecular weight: 8 × 10^5) and various acid anti-inflammatory agents.
# (§15) Wister male rats weighing 240 to 255 (6 weeks old) were preliminarily bred for not less than 1 week. Eight rats were used in one group. A 1% solution of each test agent shown in Table 5 was administered subcutaneously into the right foot pad of each rat. Six hours after the administration, a 1% solution of carrageenen was administered subcutaneously as an irritating agent into the right foot pad of each rat in a dose of 0.1 ml/animal. The volume of the right foot pad was measured before and 4 hours after the administration of carrageenen. Then, the inhibitory effect on edema was evaluated in the same way as in Test Example 1.
# [2] = test system: carrageenan-induced edema; test: Test Example 1: inhibitory effect on carrageenan-induced edema, foot pad, agent 6 h before carrageenan (Table 2); assay type: in vivo, Wister male rats
# Protocol: The inhibitory effect on carrageenan-induced edema was investigated as to combined agents of sodium hyaluronate (molecular weight: 8 ×10^5) and various anti-inflammatory agents.
# Wister male rats weighing 240 to 260 g (6 weeks old) were preliminarily bred for not less than 1 week. Eight rats were used in one group. Each test agent shown in Table 2 was dissolved or suspended in an isotonic phosphate buffer solution (pH 7.0) to give a 1% solution or suspension (hereinafter referred to as "1% solution"). The solution was administered subcutaneously into the right foot pad of each rat. Six hours after the administration, a 1% solution of carrageenan was administered subcutaneously as an irritating agent into the right foot pad of the rat in a dose of 0.1 ml/animal. The volume of the right foot pad was measured before and 4 hours after the administration of carrageenan. The rate of edema inhibition (hereinafter referred to as "inhibitory rate") by each test agent was calculated from the obtained measurements and thus the inhibitory effect on edema was evaluated.
# as §2, §3, §4, §5, §6, §7, §8, §9, §10, §11, §12, §13, §14
# [3] = test system: carrageenan-induced edema; test: Test Example 6: prolonged inhibitory effect on carrageenan-induced edema, agent 16 h before carrageenan (Table 7); assay type: in vivo, Wister male rats
# Protocol: as §1, §2, §3, §4, §5, §6, §7, §8, §9, §10, §11, §12, §13, §14
# as §15, with “240 to 260 g (6 weeks” for “240 to 255 (6 weeks”, “in Table 7 was administered” for “in Table 5 was administered”, “each rat. Sixteen hours after” for “each rat. Six hours after”, “solution of carrageenan was administered” for “solution of carrageenen was administered”
# [4] = test system: movable range of joint (right knee); test: Test Example 7: inhibition of the damage to the movable range of joint, fixed right knee (Table 8); assay type: in vivo, Rabbits (New Zealand White); conditions: articular cavity; for curative effect (in words): Table 8; for Inhibitory rate (damage to the movable range of joint): dose 3.0 mg/kg, once per three days, one month, single agent
# Protocol: Rabbits (New Zealand White) weighing about 2 kg were preliminarily bred for not less than one week and healthy ones were selected (3 rabbits per group). The joint of right knee of each rabbit was fixed by applying a splint thereto and further completely fixed not so as to move by putting it in plaster. Then the rabbits were bred normally for one month.
# During the normal breading, a 1% solution of each test agent shown in Table 8 was administered using an injection needle of gauge No. 27 into the articular cavity of each rabbit except those of the control group in a dose of 0.3 ml/kg body weight once per three days.
# One day after the last administration, the splint and the plaster were removed and the movable range of the joint was measured with a protractor under anesthesia with Nembutal (trademark). The rate of inhibition of the damage to the movable range of joint with respect to each test agent was calculated from the obtained measurements and the curative effect was evaluated.
# The rate of inhibition of the damage to the movable range of joint was calculated according to the following formula (IV), and the evaluation of synergistic effect was conducted under the same condition as in Test Example 1. [formula] MCJV: Average movable range of joint with respect to the rabbits of the […] group
# MTJV: Average movable range of joint with respect to the rabbits of the […] group
# ICR mice = test: Test Example 5: toxicity, number of dead mice 72 hours after subcutaneous administration (Table 6); assay type: in vivo; conditions: dose 40 mg/kg s.c., 5 mice per group
# Protocol: After preliminary breeding of mail ICR mice 5 weeks old weighing 23 to 28 g (5 mice per one group) for one week, a 1% solution of each test agent shown in Table 6 wa subcutaneously administered to the mice. The number of dead mice was counted 72 hours after the administration.
# The doses of the test agent used in this test were about ten times those used in Test Example 1.
# The molecular weight of sodium hyaluronate is 8 × 10^5. The
# doses in Table 6 mean the amounts (mg) administered per kg body weight.
# The dose values, to which the mark "+" is attached, as to the combined
# agents means the amounts of antiinflammatory agent added to 40 mg/kg of
# sodium hyaluronate (HA).
# [5] = test system: carrageenan-induced edema; test: Test Example 2: inhibitory effect on carrageenan-induced edema, sodium hyaluronates of different molecular weights (Table 3); assay type: in vivo, Wister male rats; conditions: dose 4.0 mg/kg
# Protocol: as §1, §2, §3, §4
# The inhibitory effect on carrageenan-induced edema was investigated as to combined agents of various grades of sodium hyaluronates having different molecular weights with diclofenac sodium.
# Wister male rats weighing 230 to 265 g (6 weeks old) were preliminarily bred for not less than 1 week. Eight rats were used in one group. A 1% solution of each test agent shown in Table 3 was administered subcutaneously into the right foot pad of each rat. Six hours after the administration, a 1% solution of carrageenan was administered subcutaneously as an irritating agent into the right foot pad of the rat in a dose of 0.1 ml/animal. The volume of the right foot pad was measured before and 4 hours after the administration of carrageenan. Then the inhibitory effect on edema was evaluated in the same way as in Test Example 1.
# [6] = test system: carrageenan-induced edema; test: Test Example 3: inhibitory effect on carrageenan-induced edema, varied ratio of diclofenac sodium to sodium hyaluronate (Table 4); assay type: in vivo, Wister male rats; conditions: dose 4 mg/kg; HA molecular weight 8 × 10^5
# Protocol: as §1, §2, §3, §4
# The inhibitory effect on carrageenan-induced edema was investigated with respect to combined agents of sodium hyaluronate (molecular weight: 8 × 10^5) and diclofenac sodium wherein the ratio of diclofenac sodium to sodium hyaluronate varied.
# Wister male rats weighing 235 to 260 g (6 weeks old) were preliminarily bred for not less than 1 week. Eight rats were used in one group. […] The volume of the right foot pad was measured before and 4 hours after the administration of carrageenen. Then, the inhibitory effect on edema was evaluated in the same way as in Test Example 1.
# [7] = dose 4.0 mg/kg, s.c. foot pad, single agent, 4 h after carrageenan
compound,measurement,setting,value
C=CCOc1ccc(CC(=O)O)cc1Cl [Alclofenac],Inhibitory rate (edema),[1],22.9%
CC(=O)Oc1ccccc1C(=O)O [Aspirin],Inhibitory rate (edema),[1],14.6%
O=C(O)Cc1ccccc1Nc1c(Cl)cccc1Cl [Diclofenac sodium],Inhibitory rate (edema),[2]; [7],16.9%
same,Inhibitory rate (edema),[3]; dose 3.0 mg/kg,9.7%
same,curative effect (in words),[4],some curative effect
same,Inhibitory rate (damage to the movable range of joint),[4],17.3%
CC(C)Cc1ccc(C(C)C(=O)O)cc1 (stereo not drawn) [Ibuprofen],Inhibitory rate (edema),[2]; [7],18.2%
COc1ccc2c(c1)c(CC(=O)O)c(C)n2C(=O)c1ccc(Cl)cc1 [Indometacin],Inhibitory rate (edema),"[2]; dose 1.2 mg/kg, s.c. foot pad, single agent, 4 h after carrageenan",12.9%
same,Inhibitory rate (edema),[3]; dose 3.0 mg/kg,20%
Cc1cccc(Nc2ccccc2C(=O)O)c1C [Mefenamic acid],Inhibitory rate (edema),[1],34.2%
"CCCCC1C(=O)N(c2ccccc2)N(c2ccccc2)C1=O [Phenylbutazon, Phenylbutazone]",Inhibitory rate (edema),[2]; [7],46.1%
CN1C(C(=O)Nc2ccccn2)=C(O)c2ccccc2S1(=O)=O [Piroxicam],Inhibitory rate (edema),[2]; [7],34.6%
CC(C(=O)O)c1ccc2c(c1)Cc1cccnc1O2 (stereo not drawn) [Pranoprofen],Inhibitory rate (edema),[1],39.0%
C[C@]12C=CC(=O)C=C1CC[C@@H]1[C@@H]2[C@@H](O)C[C@@]2(C)[C@H]1CC[C@]2(O)C(=O)CO [Prednisolone],Inhibitory rate (edema),"[2]; dose 0.5 mg/kg, s.c. foot pad, single agent, 4 h after carrageenan",21.7%
O=C([O-])c1ccccc1O.[Na+] [Sodium salicylate],Inhibitory rate (edema),"[2]; rat, in vivo, sc, 50 mg/kg",46.6%
Cc1ccc(C(=O)c2ccc(CC(=O)O)n2C)cc1 [Tolmetin],Inhibitory rate (edema),[1],25.1%
Sodium hyaluronate [Sodium hyaluronate (HA)],Number of dead mice,ICR mice,0
same,Inhibitory rate (edema),[1],23.9%
same,Inhibitory rate (edema),[2]; [7],23.5%
same,Inhibitory rate (edema),[5]; molecular weight of HA 28 × 10^4,-36.4%
same,Inhibitory rate (edema),[5]; molecular weight of HA 58 × 10^4,17.9%
same,Inhibitory rate (edema),[5]; molecular weight of HA 80 × 10^4,29.9%
same,Inhibitory rate (edema),[5]; molecular weight of HA 210 × 10^4,43.2%
same,Inhibitory rate (edema),[3]; dose 4.0 mg/kg,30.0%
same,curative effect (in words),[4],some curative effect
same,Inhibitory rate (damage to the movable range of joint),[4],24.5%
same,Inhibitory rate (edema),[6],25.9%
